Source: patent publication US20240294466A1, “SODIUM N-(8-(2- HYDROXYBENZOYL)AMINO)CAPRYLATE P[…] A” (Novo Nordisk A/S, priority 2021, published 2024)

Experiments:
Format in all cases: physicochemical
[1] = XRPD FWHM of the peak at 8.7±0.2° 2θ (degree of crystal imperfections), method 1; details: Batch 5, tray oven
Method: (§1) XRPD was performed using a Malvern Panalytical Empyrean diffractometer at ambient conditions. The diffraction pattern was measured at room temperature using an Empyrean Cu LFF HR (45 kV/40 mA) source and PIXcel3D-Medipix3 1×1 detector. The measurement was performed in the range of 2-40° 20 using a scan speed of 0.067335° 2θ/s and a step size of 0.0262606° 2θ. The samples were measured in transmission mode and with a spinner revolution time of 1 second. Approximately 200 mg of sample were placed between two sheets of Kapton Polyimide Thin-film. The measurements were performed using a Soller slit of 0.04 radians and a fixed divergence slit of 0.5° on the incident beam, and a 3 mm Anti scatter slit and a Soller slit of 0.04 radians in the diffracted beam.
The degree of crystal imperfections was assessed by use of the FWHM as more crystal imperfections might cause peak broadening and lower peak height, which leads to higher FWHM values due to fewer lattice planes with identical orientation contributing to the diffraction peak. Oppositely, in the absence of crystal imperfections, lattice planes with identical orientation increase and result in narrower and higher diffraction peaks leading to smaller FWHM values. The FWHM was calculated using the characteristic peak at 8.7±0.2° 2θ by finding the apex of the peak and measuring the height of the peak applying the x-axis as the baseline (automatic mode) (see FIG. 11) or applying a baseline spanning the two surrounding troughs (manual mode) (see FIG. 12). This value is then divided in half to find the half height. Hereafter the width of the peak at that half height is measured and reported in ° 2θ. Alternatively, the peak at 6.0±0.2° 2θ may also be used to calculate the FWHM.
(§2) Samples from a batch of SNAC polymorphic form A (Batch 5) with a FWHM of 0.97° 2θ (automatic mode) and a moisture uptake of 1.98% at 65% RH from the beginning were heated to 90, 100, 110, 120, 130, and 140° C., respectively, in a tray oven. The samples were exposed to their respective temperatures for up to 72 h. The sample size was small enough to ensure that the samples equilibrated completely, within a few of minutes, to the oven temperature. Samples were taken during the 72 h of elevated temperature exposure and subjected to XRPD measurements in accordance with method 1 to determine the polymorphic form and impact on crystal imperfections using FWHM with the x-axis as the baseline (automatic mode).
(§3) Samples from different batches of SNAC polymorphic form A were subjected to a heat treatment in a tray oven and the sample size was small enough to ensure that the samples equilibrated completely and within a couple of minutes to the oven temperature. Samples were taken from the batches before the heat treatment and after the heat treatment and subjected to XRPD measurements in accordance with method 1 to determine the polymorphic form and impact on crystal imperfections using FWHM with the x-axis as the baseline (auto mode). Furthermore, samples were also subjected to DVS measurements in accordance with method 3 to determine the impact of the heat treatment on the hygroscopicity.

[2] = Polymorphic form determined by XRPD, method 1; details: for Polymorphic form of SNAC determined by XRPD: Batch 5, tray oven
Method: as §1
The polymorphic form of the sample was determined by comparison of the diffractogram obtained for the sample with reference diffractograms for the SNAC polymorphs and solvates.
as §2, §3

[3] = Dynamic vapour sorption (DVS) moisture uptake, method 3; details: for mass increase when subjected to an increase in relative humidity from about 0% to about 65% RH as determined by DVS: 25° C.; for Moisture absorbed for SNAC at 65% RH determined by DVS: DVS at 25 °C
Method: Moisture sorption/desorption data were measured by a Dynamic Vapour Sorption Advantage 1 from Surface Measurement Systems. Prior to analysis the samples were dried for up to about 48 h in desiccators containing phosphorus pentoxide. Approximately 20 mg of sample was placed into a balance pan and loaded into the instrument and the sample was then further dried for a minimum of 500 min in the instrument at 0% RH using a nitrogen purge. The resulting sample weight after the further drying was assigned as the 0% start weight and all weight gains and losses was calculated relative to this start weight. Sorption and desorption isotherms were collected over a range from 0 to 90% relative humidity (RH) using a nitrogen purge at 25° C. The threshold for equilibrium used for analysis was 0.002 to 0.0005 dm/dt.
Furthermore, samples were taken after 24 h of exposure at the indicated elevated temperatures and were subjected to dynamic vapor sorption measurements in accordance with method 3 to determine the hygroscopicity. The moisture uptake was measured at 65% RH. The hygroscopicity is decreased as the moisture absorbed at 65% RH decreases when exposing SNAC polymorphic form A to elevated temperatures for 24 h.

## O=C([O-])CCCCCCCNC(=O)c1ccccc1O.[Na+] [SNAC, monosodium N-[8-(2-hydroxybenzoyl)-amino]caprylate]
[1]; 90 °C, 0 h
  FWHM (automatic mode) for the XRPD peak around 8.7 ± 0.2° 2θ: 0.97 ° 2θ
[1]; 90 °C, 0.25 h
  FWHM (automatic mode) for the XRPD peak around 8.7 ± 0.2° 2θ: 0.95 ° 2θ
[1]; 90 °C, 0.5 h
  FWHM (automatic mode) for the XRPD peak around 8.7 ± 0.2° 2θ: 0.95 ° 2θ
[1]; 90 °C, 1 h
  FWHM (automatic mode) for the XRPD peak around 8.7 ± 0.2° 2θ: 0.92 ° 2θ
[1]; 90 °C, 6 h
  FWHM (automatic mode) for the XRPD peak around 8.7 ± 0.2° 2θ: 0.92 ° 2θ
[1]; 90 °C, 24 h
  FWHM (automatic mode) for the XRPD peak around 8.7 ± 0.2° 2θ: 0.89 ° 2θ
[1]; 90 °C, 48 h
  FWHM (automatic mode) for the XRPD peak around 8.7 ± 0.2° 2θ: 0.89 ° 2θ
[1]; 90 °C, 72 h
  FWHM (automatic mode) for the XRPD peak around 8.7 ± 0.2° 2θ: 0.89 ° 2θ
[1]; 100 °C, 0 h
  FWHM (automatic mode) for the XRPD peak around 8.7 ± 0.2° 2θ: 0.97 ° 2θ
[1]; 100 °C, 0.25 h
  FWHM (automatic mode) for the XRPD peak around 8.7 ± 0.2° 2θ: 1.02 ° 2θ
[1]; 100 °C, 0.5 h
  FWHM (automatic mode) for the XRPD peak around 8.7 ± 0.2° 2θ: 0.95 ° 2θ
[1]; 100 °C, 1 h
  FWHM (automatic mode) for the XRPD peak around 8.7 ± 0.2° 2θ: 0.95 ° 2θ
[1]; 100 °C, 6 h
  FWHM (automatic mode) for the XRPD peak around 8.7 ± 0.2° 2θ: 0.89 ° 2θ
[1]; 100 °C, 24 h
  FWHM (automatic mode) for the XRPD peak around 8.7 ± 0.2° 2θ: 0.81 ° 2θ
[1]; 100 °C, 48 h
  FWHM (automatic mode) for the XRPD peak around 8.7 ± 0.2° 2θ: 0.81 ° 2θ
[1]; 100 °C, 72 h
  FWHM (automatic mode) for the XRPD peak around 8.7 ± 0.2° 2θ: 0.81 ° 2θ
[1]; 110 °C, 0 h
  FWHM (automatic mode) for the XRPD peak around 8.7 ± 0.2° 2θ: 0.97 ° 2θ
[1]; 110 °C, 0.25 h
  FWHM (automatic mode) for the XRPD peak around 8.7 ± 0.2° 2θ: 0.92 ° 2θ
[1]; 110 °C, 0.5 h
  FWHM (automatic mode) for the XRPD peak around 8.7 ± 0.2° 2θ: 0.84 ° 2θ
[1]; 110 °C, 1 h
  FWHM (automatic mode) for the XRPD peak around 8.7 ± 0.2° 2θ: 0.87 ° 2θ
[1]; 110 °C, 6 h
  FWHM (automatic mode) for the XRPD peak around 8.7 ± 0.2° 2θ: 0.71 ° 2θ
[1]; 110 °C, 24 h
  FWHM (automatic mode) for the XRPD peak around 8.7 ± 0.2° 2θ: 0.66 ° 2θ
[1]; 110 °C, 48 h
  FWHM (automatic mode) for the XRPD peak around 8.7 ± 0.2° 2θ: 0.60 ° 2θ
[1]; 110 °C, 72 h
  FWHM (automatic mode) for the XRPD peak around 8.7 ± 0.2° 2θ: 0.58 ° 2θ
[1]; 120 °C, 0 h
  FWHM (automatic mode) for the XRPD peak around 8.7 ± 0.2° 2θ: 0.97 ° 2θ
[1]; 120 °C, 0.25 h
  FWHM (automatic mode) for the XRPD peak around 8.7 ± 0.2° 2θ: 0.81 ° 2θ
[1]; 120 °C, 0.5 h
  FWHM (automatic mode) for the XRPD peak around 8.7 ± 0.2° 2θ: 0.76 ° 2θ
[1]; 120 °C, 1 h
  FWHM (automatic mode) for the XRPD peak around 8.7 ± 0.2° 2θ: 0.71 ° 2θ
[1]; 120 °C, 6 h
  FWHM (automatic mode) for the XRPD peak around 8.7 ± 0.2° 2θ: 0.63 ° 2θ
[1]; 120 °C, 24 h
  FWHM (automatic mode) for the XRPD peak around 8.7 ± 0.2° 2θ: 0.58 ° 2θ
[1]; 120 °C, 48 h
  FWHM (automatic mode) for the XRPD peak around 8.7 ± 0.2° 2θ: 0.58 ° 2θ
[1]; 120 °C, 72 h
  FWHM (automatic mode) for the XRPD peak around 8.7 ± 0.2° 2θ: 0.53 ° 2θ
[1]; 130 °C, 0 h
  FWHM (automatic mode) for the XRPD peak around 8.7 ± 0.2° 2θ: 0.97 ° 2θ
[1]; 130 °C, 0.25 h
  FWHM (automatic mode) for the XRPD peak around 8.7 ± 0.2° 2θ: 0.81 ° 2θ
[1]; 130 °C, 0.5 h
  FWHM (automatic mode) for the XRPD peak around 8.7 ± 0.2° 2θ: 0.74 ° 2θ
[1]; 130 °C, 1 h
  FWHM (automatic mode) for the XRPD peak around 8.7 ± 0.2° 2θ: 0.66 ° 2θ
[1]; 130 °C, 6 h
  FWHM (automatic mode) for the XRPD peak around 8.7 ± 0.2° 2θ: 0.50 ° 2θ
[1]; 130 °C, 24 h
  FWHM (automatic mode) for the XRPD peak around 8.7 ± 0.2° 2θ: 0.50 ° 2θ
[1]; 130 °C, 48 h
  FWHM (automatic mode) for the XRPD peak around 8.7 ± 0.2° 2θ: 0.50 ° 2θ
[1]; 130 °C, 72 h
  FWHM (automatic mode) for the XRPD peak around 8.7 ± 0.2° 2θ: 0.50 ° 2θ
[1]; 140 °C, 0 h
  FWHM (automatic mode) for the XRPD peak around 8.7 ± 0.2° 2θ: 0.97 ° 2θ
[1]; 140 °C, 0.25 h
  FWHM (automatic mode) for the XRPD peak around 8.7 ± 0.2° 2θ: 0.68 ° 2θ
[1]; 140 °C, 0.5 h
  FWHM (automatic mode) for the XRPD peak around 8.7 ± 0.2° 2θ: 0.58 ° 2θ
[1]; 140 °C, 1 h
  FWHM (automatic mode) for the XRPD peak around 8.7 ± 0.2° 2θ: 0.53 ° 2θ
[1]; 140 °C, 6 h
  FWHM (automatic mode) for the XRPD peak around 8.7 ± 0.2° 2θ: 0.45 ° 2θ
[1]; 140 °C, 24 h
  FWHM (automatic mode) for the XRPD peak around 8.7 ± 0.2° 2θ: 0.45 ° 2θ
[1]; 140 °C, 48 h
  FWHM (automatic mode) for the XRPD peak around 8.7 ± 0.2° 2θ: 0.42 ° 2θ
[1]; 140 °C, 72 h
  FWHM (automatic mode) for the XRPD peak around 8.7 ± 0.2° 2θ: 0.45 ° 2θ
[2]; 120 °C, 48 h
  Polymorphic form of SNAC determined by XRPD: A & B
[2]; 120 °C, 72 h
  Polymorphic form of SNAC determined by XRPD: A & B
[2]; 130 °C, 6 h
  Polymorphic form of SNAC determined by XRPD: A & B
[2]; 130 °C, 24 h
  Polymorphic form of SNAC determined by XRPD: A & B
[2]; 130 °C, 48 h
  Polymorphic form of SNAC determined by XRPD: A & B
[2]; 130 °C, 72 h
  Polymorphic form of SNAC determined by XRPD: A & B
[2]; 140 °C, 1 h
  Polymorphic form of SNAC determined by XRPD: A & B
[2]; 140 °C, 6 h
  Polymorphic form of SNAC determined by XRPD: A & B
[2]; 140 °C, 24 h
  Polymorphic form of SNAC determined by XRPD: A & B
[2]; 140 °C, 48 h
  Polymorphic form of SNAC determined by XRPD: A & B
[2]; 140 °C, 72 h
  Polymorphic form of SNAC determined by XRPD: A & B
[2]; at 120° C.
  onset time of conversion into polymorphic form B: more than 24 h
[2]; at 130° C.
  onset time of conversion into polymorphic form B: > 1 h
[2]; at 140° C.
  onset time of conversion into polymorphic form B: > 0.5 h
[2]; exposure for up to 72 h at temperatures up to about 110° C.
  conversion of the polymorphic form: does not convert
[3]; sample of FIG. 1
  mass increase when subjected to an increase in relative humidity from about 0% to about 65% RH as determined by DVS: less than 1.0%
[3]; sample of FIG. 2
  mass increase when subjected to an increase in relative humidity from about 0% to about 65% RH as determined by DVS: about 1.3%
[3]; sample of FIG. 3
  mass increase when subjected to an increase in relative humidity from about 0% to about 65% RH as determined by DVS: about 2.9%
[3]; Batch 5, after 24 h at 90 °C
  Moisture absorbed for SNAC at 65% RH determined by DVS: 1.73%
[3]; Batch 5, after 24 h at 100 °C
  Moisture absorbed for SNAC at 65% RH determined by DVS: 1.37%
[3]; Batch 5, after 24 h at 110 °C
  Moisture absorbed for SNAC at 65% RH determined by DVS: 1.21%
[3]; Batch 5, after 24 h at 120 °C
  Moisture absorbed for SNAC at 65% RH determined by DVS: 0.94%
[3]; Batch 5, after 24 h at 130 °C
  Moisture absorbed for SNAC at 65% RH determined by DVS: 0.81%
[3]; Batch 5, after 24 h at 140 °C
  Moisture absorbed for SNAC at 65% RH determined by DVS: 0.74%
